Test results published in patent US12447151B2, “Alkyne derivative, preparation method for same, and uses thereof” (ZHEJIANG HISUN PHARMACEUTICAL CO., LTD., priority 2019, dated 2025).

Assays:
[1] = Oral pharmacokinetics in ICR mice; type: in vivo; details: male, mouse, plasma, Oral (5 mg/kg)
Experimental: Using ICR mice as the test animals, the mice were intragastrically administrated with the compound of the present invention. LC/MS/MS method was used to determine the drug concentration in the plasma at different times to study the pharmacokinetic characteristics of the compound of the present invention in mice.
An appropriate amount of the compound to be tested was weighed, and 0.5% sodium carboxymethylcellulose (containing 0.05% Tween80) was added. The mixture was vortexed, and sonicated so that the solid was ultrasonically dispersed uniformly to obtain a suspension; 100 μL×2 of the preparation were aspirated, and placed in 1.5-mL EP tubes, stored at 2 to 8° C. The concentration of the preparation was 0.5 mg/mL.
Twenty-seven healthy adult ICR male mice were fasted overnight and then intragastrically administered (dosage of administration was 5 mg/kg), and fed 4 hours after administration.
At 0.083 hours, 0.25 hours, 0.5 hours, 1 hour, 2 hours, 4 hours, 8 hours, 12 hours, and 24 hours after administration, 80 μL of blood was collected from the orbital vein. About 0.08 mL of blood was collected, and placed in EDTA-K2 anticoagulation tube. […] The collected plasma was stored at −40 to −20° C. before analysis. The […] method was used to determine the content of the test compound in the plasma of ICR mice after intragastric administration of different compounds.

recombinant human PI3Kβ = recombinant human PI3Kβ (Homo sapiens (Human), UniProt P42338); assay: Inhibitory activity on PI3K kinase (ADP-Glo Kinase Assay)
Sequence of recombinant human PI3Kβ (P42338 whole entry): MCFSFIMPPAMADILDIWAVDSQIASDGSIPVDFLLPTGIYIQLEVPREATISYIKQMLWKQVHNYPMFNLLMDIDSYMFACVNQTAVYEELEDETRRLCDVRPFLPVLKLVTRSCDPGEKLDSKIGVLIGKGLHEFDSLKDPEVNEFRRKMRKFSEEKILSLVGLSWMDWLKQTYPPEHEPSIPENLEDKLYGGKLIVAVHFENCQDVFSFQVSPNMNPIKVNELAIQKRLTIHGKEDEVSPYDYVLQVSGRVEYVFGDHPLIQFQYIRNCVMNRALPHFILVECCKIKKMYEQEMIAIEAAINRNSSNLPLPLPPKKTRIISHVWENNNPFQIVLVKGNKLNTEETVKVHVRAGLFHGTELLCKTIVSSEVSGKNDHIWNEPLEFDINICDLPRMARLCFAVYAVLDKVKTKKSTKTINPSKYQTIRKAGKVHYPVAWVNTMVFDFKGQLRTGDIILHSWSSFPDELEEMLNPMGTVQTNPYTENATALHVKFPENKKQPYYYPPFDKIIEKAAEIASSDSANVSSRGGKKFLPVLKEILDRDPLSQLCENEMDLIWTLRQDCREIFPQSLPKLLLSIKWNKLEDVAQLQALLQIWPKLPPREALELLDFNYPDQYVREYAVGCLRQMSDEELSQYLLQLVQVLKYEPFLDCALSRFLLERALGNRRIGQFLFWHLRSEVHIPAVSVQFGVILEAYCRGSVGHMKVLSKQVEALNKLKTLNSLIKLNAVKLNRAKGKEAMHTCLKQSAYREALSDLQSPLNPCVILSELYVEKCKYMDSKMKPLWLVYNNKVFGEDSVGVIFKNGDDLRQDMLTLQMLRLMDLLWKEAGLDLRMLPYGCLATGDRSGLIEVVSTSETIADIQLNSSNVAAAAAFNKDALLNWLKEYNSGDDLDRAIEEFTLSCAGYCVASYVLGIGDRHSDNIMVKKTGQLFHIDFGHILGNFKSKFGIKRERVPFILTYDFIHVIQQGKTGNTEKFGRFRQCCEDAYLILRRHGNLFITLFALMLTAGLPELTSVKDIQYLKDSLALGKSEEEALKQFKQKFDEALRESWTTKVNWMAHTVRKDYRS
Sequence of recombinant human PI3Kβ (P27986 whole entry partner): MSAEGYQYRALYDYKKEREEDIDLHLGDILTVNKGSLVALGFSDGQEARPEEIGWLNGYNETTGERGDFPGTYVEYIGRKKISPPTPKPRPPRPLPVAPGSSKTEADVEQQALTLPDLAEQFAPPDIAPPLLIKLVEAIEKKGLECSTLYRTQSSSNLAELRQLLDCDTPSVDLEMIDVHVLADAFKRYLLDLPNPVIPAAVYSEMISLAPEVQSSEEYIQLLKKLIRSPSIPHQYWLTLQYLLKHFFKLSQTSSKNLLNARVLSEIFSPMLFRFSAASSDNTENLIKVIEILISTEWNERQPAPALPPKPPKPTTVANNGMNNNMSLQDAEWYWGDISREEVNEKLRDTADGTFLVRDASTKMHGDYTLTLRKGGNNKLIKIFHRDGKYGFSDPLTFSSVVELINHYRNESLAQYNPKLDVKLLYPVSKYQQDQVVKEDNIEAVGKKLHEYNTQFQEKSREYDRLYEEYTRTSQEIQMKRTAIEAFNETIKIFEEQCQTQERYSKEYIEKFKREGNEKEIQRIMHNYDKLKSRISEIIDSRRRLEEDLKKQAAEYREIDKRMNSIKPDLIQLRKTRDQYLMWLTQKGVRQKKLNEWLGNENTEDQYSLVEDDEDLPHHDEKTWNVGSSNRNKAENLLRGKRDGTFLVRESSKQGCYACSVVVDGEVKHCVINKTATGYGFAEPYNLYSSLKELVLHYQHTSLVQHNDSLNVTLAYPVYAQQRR
Text: The following method is used to determine the degree of inhibition of recombinant human PI3Kα, PI3Kβ, PI3Kγ and PI3Kδ kinase activity by the compounds of the present invention under in vitro conditions. Promega's ADP-Glo Kinase Assay Kit (Cat. No. V9102) was used in this method. The above kit was a luminescence kinase detection kit, which was used to detect the ADP content produced by the kinase reaction. The ADP content was positively correlated with the kinase activity. By measuring the ADP content, the inhibition of the compound on the activity of PI3Kα, PI3Kβ, PI3Kγ and PI3Kδ kinases was reflected. […] Recombinant human PI3Kα, PI3Kγ, and PI3Kδ were purchased from Invitrogen, and PI3Kβ was purchased from Promega (category numbers were PI3Kα: PV4788; PI3Kβ: V1751; PI3Kγ: PV4786 and PI3Kδ: PV6451 separately).

- AUC(0-inf) ([1]; read-out: Area under the curve AUC0-∞): 15100 ng·h/mL
- bioavailability ([1]; read-out: Bioavailability F): 60%
- half-life ([1]; read-out: Half-life period T½ (converted)): 204 min
- Cmax ([1]; read-out: Plasma concentration Cmax): 1730 ng/mL
- IC50 (recombinant human PI3Kβ): 466 nM
SMILES: C[C@H](NC(=O)c1c(N)nn2cccnc12)c1nc2cccc(C#Cc3cnn(C4CC4)c3)c2c(=O)n1-c1ccccc1 [Example 2, (S)-2-amino-N-(1-(5-((1-cyclopropyl-1H-pyrazol-4-yl)ethynyl)-4-oxo-3-phenyl-3,4-dihydroquinazolin-2-yl)ethyl)pyrazolo[1,5-a]pyrimidine-3-carboxamide]
